Measured values from publication PMC7738871, “Covalent modification of Keap1 at Cys77 and Cys434 by pubescenoside a suppresses oxidative stress-induced NLRP3 inflammasome activation in myocardial ischemia-reperfusion injury” (Theranostics, 2021).

Experiments:
OGD/R-induced H9c2 cells = assay: OGD/R-induced injury, MTT viability, H9c2; format: cell-based, rat; settings: 100 μM, compared with PBA
Method: For OGD/R treatment, H9c2 cells were washed twice with phosphate buffered saline (PBS). The medium was changed to glucose and serum free DMEM, and H9c2 cells were incubated in an incubator with 95% N2 and 5% CO2 at 37 °C. After 6 h, the medium was replaced with DMEM containing 10% FBS and 1% PS. Then H9c2 cells were returned to a normal incubator with 5% CO2 balanced with air at 37 °C for the indicated time.
Cell viability was determined by MTT assays. PBA was prepared to a stock solution dissolved in dimethyl sulfoxide (DMSO). RAW264.7, H9c2 cells, primary mouse cardiomyocytes were treated with different doses of PBA, and DMSO only as control for 48 h for the toxicity. In addition, H9c2 cells or primary mouse cardiomyocytes were treated with the indicated doses of PBA, diazoxide as positive control, DMSO only as control, then cultured with or without OGD/R treatment. At the end of the experiments, MTT was added into each well at the concentration of 0.5 mg/ml, and incubated at 37 °C for 4 h. After removal of the supernatant, 150 μL of DMSO was added to solubilize the formazan products. And the solution was measured at the absorbance of 490 nm by a spectrophotometer (Thermo Fisher Scientific, MA, USA). The results of the MTT assay in all groups were normalized to the control group with DMSO only treatment.

[1] = system: Keap1-dependent Nrf2 ubiquitination; assay: Keap1-dependent Nrf2 ubiquitination in 293T cells; format: cell-based, human; settings: WT Keap1, 30 μM PBA 20 h, 5 μM MG132 4 h
Method: Alkylation of the BTB domain of Keap1 by covalent modifiers contributes to the disruption of the Keap1-Cul3 interactions, leading to Nrf2 activation. Next, we investigated the effect of PBA on the modulation of Nrf2 ubiquitination as Nrf2 stability is controlled by ubiquitin-mediated proteasomal degradation. First, 3X Flag-Keap1, Myc-Nrf2 and Ub plasmids were transfected into 293T cells and then, the cells were treated with 30 μM PBA for 20 h and 5 μM MG132 for another 4 h. Cell lysates were pulled down using anti-Myc beads, and immunopurified Nrf2 was examined for the occurrence of Ub by western blotting. […] As shown in Figure 6E-F, PBA could disrupt the interaction of Keap1 and Cul3 in WT-Keap1 cells, while the disruption was blocked in the Cys77S and Cys434-Keap1 mutant cells.
Figure 6 PBA suppresses Keap1-mediated ubiquitination of Nrf2 by disrupting the interaction between Cul3 and Keap1. (A and B) PBA suppressed Nrf2 ubiquitination in a Keap1-Cys77 and C434-dependent manner. First, 293T cells were transfected with WT-Keap1 or C77S and C434S-Keap1, Myc-Nrf2, and Ub plasmids for 24 h and treated with 30 μM PBA. The cell lysates were immunoprecipitated using anti-Myc beads, and the ubiquitination level was evaluated using the anti-Ub antibody. (C and D) PBA induced the dissociation of the Nrf2-Keap1 complex. Then, 293T cells were cotransfected with WT-Keap1 and Flag-Nrf2 plasmids for 24 h and treated with 30 μM PBA for 12 h. The cell lysates were immunoprecipitated with the anti-Flag antibody, and the level of Nrf2 was assessed using the anti-Nrf2 antibody. (E and F) PBA disrupted the interaction between Cul3 and Keap1. […] The cell lysates were immunoprecipitated with the anti-Flag antibody, and the level of Cul3 was measured using the anti-Cul3 antibody. #p < 0.05, ##p < 0.01, ###p < 0.001, the control vs DMSO; *p < 0.05,**p < 0.01, ***p < 0.001, PBA or tBHQ vs DMSO. […] Cell viability was measured by MTT assays. #p < 0.05, ###p < 0.001, the control vs OGD/R; **p < 0.01, ***p < 0.001, OGD/R+PBA vs OGD/R.

[2] = system: T1, interaction between Keap1 and Nrf2; assay: Co-IP of Keap1 and Nrf2 in 293T cells; format: cell-based, human; settings: WT-Keap1, 30 μM PBA
T1 construct: expressed in transfected cells; host or cells: 293T
Method: Figure 6 PBA suppresses Keap1-mediated ubiquitination of Nrf2 by disrupting the interaction between Cul3 and Keap1. (A and B) PBA suppressed Nrf2 ubiquitination in a Keap1-Cys77 and C434-dependent manner. First, 293T cells were transfected with WT-Keap1 or C77S and C434S-Keap1, Myc-Nrf2, and Ub plasmids for 24 h and treated with 30 μM PBA. The cell lysates were immunoprecipitated using anti-Myc beads, and the ubiquitination level was evaluated using the anti-Ub antibody. (C and D) PBA induced the dissociation of the Nrf2-Keap1 complex. Then, 293T cells were cotransfected with WT-Keap1 and Flag-Nrf2 plasmids for 24 h and treated with 30 μM PBA for 12 h. The cell lysates were immunoprecipitated with the anti-Flag antibody, and the level of Nrf2 was assessed using the anti-Nrf2 antibody. (E and F) PBA disrupted the interaction between Cul3 and Keap1. The 293T cells were transfected with the WT-Keap1 or C77S-C434S-Keap1 plasmids for 24 h and treated with 30 μM PBA for 12 h. The cell lysates were immunoprecipitated with the anti-Flag antibody, and the level of Cul3 was measured using the anti-Cul3 antibody. #p < 0.05, ##p < 0.01, ###p < 0.001, the control vs DMSO; *p < 0.05,**p < 0.01, ***p < 0.001, PBA or tBHQ vs DMSO. […] Primary mouse cardiomyocytes were transfected with mouse WT-Keap1 or C77S and C434S-Keap1 mutant vectors. After 24 h, the cells were treated with the indicated doses of PBA and subjected to OGD conditions as described in the Method section for 3 h and under normal conditions for another 18 h. Cell viability was measured by MTT assays. #p < 0.05, ###p < 0.001, the control vs OGD/R; **p < 0.01, ***p < 0.001, OGD/R+PBA vs OGD/R.
To investigate the effect of PBA on the interaction of Keap1 and Nrf2, we transfected 293T cells with Flag-Keap1 and Myc-Nrf2 plasmids, and treated them with 30 μM PBA for 24 h. The protein expression of Nrf2 was measured by western blotting analysis followed by immunoprecipitation with Flag beads.

Compound | protective effect against OGD/R induced injury (positive control) (OGD/R-induced H9c2 cells) | Keap1-dependent Nrf2 ubiquitination [1] | interaction between Keap1 and Nrf2 (Co-IP) [2]
CC1=NS(=O)(=O)c2cc(Cl)ccc2N1 [diazoxide, reference compound] | protective effect of PBA seemed equal to that of 100 μM diazoxide |  | 
CC(C)(C)c1cc(O)ccc1O [tBHQ, reference compound] |  | significantly suppressed | did not affect it
